{
  "source": "paper PMC3206815",
  "about": "“An Essential Farnesylated Kinesin in Trypanosoma brucei” (PLoS ONE, 2011)",
  "origin": "cited, not measured here",
  "biological_target": "T1, TB-PFT (T. brucei protein farnesyl transferase) (Trypanosoma brucei, UniProt Q57U08+Q580J3)",
  "T1 construct": "gene Tb07.8P12.660; heterodimer",
  "T1 sequence (Q57U08 1-585)": "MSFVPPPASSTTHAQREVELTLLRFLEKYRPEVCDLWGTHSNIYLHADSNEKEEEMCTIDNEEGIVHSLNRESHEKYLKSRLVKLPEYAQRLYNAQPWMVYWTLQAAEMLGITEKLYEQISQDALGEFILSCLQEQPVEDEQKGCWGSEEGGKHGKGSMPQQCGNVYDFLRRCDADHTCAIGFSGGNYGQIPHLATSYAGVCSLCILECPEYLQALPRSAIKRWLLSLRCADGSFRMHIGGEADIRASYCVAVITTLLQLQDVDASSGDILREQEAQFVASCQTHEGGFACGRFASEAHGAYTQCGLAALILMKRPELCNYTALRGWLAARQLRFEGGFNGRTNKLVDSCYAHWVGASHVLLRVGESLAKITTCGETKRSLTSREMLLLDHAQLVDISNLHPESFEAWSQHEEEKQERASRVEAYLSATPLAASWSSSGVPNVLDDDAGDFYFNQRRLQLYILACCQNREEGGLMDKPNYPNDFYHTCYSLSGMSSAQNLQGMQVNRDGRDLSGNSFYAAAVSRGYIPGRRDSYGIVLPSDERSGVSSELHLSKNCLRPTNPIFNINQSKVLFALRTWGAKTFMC",
  "T1 sequence (Q580J3 1-612)": "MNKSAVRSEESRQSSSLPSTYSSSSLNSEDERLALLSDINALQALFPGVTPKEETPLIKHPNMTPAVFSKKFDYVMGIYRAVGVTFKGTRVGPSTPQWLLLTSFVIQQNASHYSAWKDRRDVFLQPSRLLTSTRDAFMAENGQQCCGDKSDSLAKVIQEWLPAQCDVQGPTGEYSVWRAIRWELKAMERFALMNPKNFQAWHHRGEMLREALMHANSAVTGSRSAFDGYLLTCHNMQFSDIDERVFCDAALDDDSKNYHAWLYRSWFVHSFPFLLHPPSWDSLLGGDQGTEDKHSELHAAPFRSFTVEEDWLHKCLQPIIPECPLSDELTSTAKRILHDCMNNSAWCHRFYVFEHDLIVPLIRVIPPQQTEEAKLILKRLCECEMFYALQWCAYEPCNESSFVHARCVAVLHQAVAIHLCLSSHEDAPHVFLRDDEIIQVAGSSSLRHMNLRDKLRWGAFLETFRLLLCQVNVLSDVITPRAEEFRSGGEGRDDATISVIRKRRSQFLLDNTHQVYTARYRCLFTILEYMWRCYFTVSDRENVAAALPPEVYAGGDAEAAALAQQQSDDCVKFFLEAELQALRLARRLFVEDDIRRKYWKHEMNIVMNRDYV",
  "assay": "PFT inhibition, method not described here",
  "type": "biochemical",
  "conditions": "value printed without citation or assay method; cited from earlier work",
  "data": [
    {"substance": "LN-59", "values": [
      {"measurement": "IC50", "value": 35, "unit": "nM"}
    ]}
  ]
}
